# Source: US4613355A, “Antibiotic having herbicidal activity” (Satoshi Omura, priority 1983, dated 1986)
# Assays:
# Format in all cases: in vivo
# [1] = system: Smilax china; test: Foliage treatment of naturally growing weeds and brush (Example 9); set-up: key: 0 indicates no effect; 5 indicates complete kill; settings: Plant No. 17 Smilax china, One month
# Description: (§1) Aqueous solutions of Phosalacine (Na salt) at different concentrations and 0.1% of octylphenylpolyoxy ethanol as surfactant were applied to the area where various weeds and brush were naturally growing at a rate of 1500 liter per hectare. One month after the foliage treatment, damage to weeds and brush was visually assessed on a scale of from 0 to 5 where 0 indicates no effect and 5 indicates complete kill as hereinbefore defined.
# [2] = system: Viburnum dilatatum; test: as above; set-up: key: 0 indicates no effect; 5 indicates complete kill; settings: Plant No. 21 Viburnum dilatatum, One month
# Description: as §1
# [3] = system: Castanea crenata; test: as above; set-up: key: 0 indicates no effect; 5 indicates complete kill; settings: Plant No. 8 Castanea crenata, One month
# Description: as §1
# [4] = system: Rubus palmatus; test: as above; set-up: key: 0 indicates no effect; 5 indicates complete kill; settings: Plant No. 18 Rubus palmatus, One month
# Description: as §1
# [5] = system: Zanthoxylum piperitum; test: as above; set-up: key: 0 indicates no effect; 5 indicates complete kill; settings: Plant No. 19 Zanthoxylum piperitum, One month
# Description: as §1
# [6] = system: Pteridium aquilinum; test: as above; set-up: key: 0 indicates no effect; 5 indicates complete kill; settings: Plant No. 20 Pteridium aquilinum, One month
# Description: as §1
# [7] = system: various weeds and brush (overall evaluation); test: as above; set-up: key: 0 indicates no effect; 5 indicates complete kill; settings: OE overall evaluation, One month
# Description: as §1
# [8] = system: Chamaecyparis obtusa; test: Foliage treatment of woody plants (Example 10); set-up: key to damage to the plants, scale 0 to 5: 0 indicates no effect; 5 indicates complete kill; settings: CH Chamaecyparis obtusa
# Description: (§2) Aqueous solutions containing Phosalacine (Na salt) at different concentrations and 0.1% of octylphenylpolyoxy ethanol as surfactant were applied at a rate of 1500 liter per hectare to woody plants of about 60-70 cm in height. 7 and 14 days after the foliage treatment, damage to the plants was visually assessed on a scale of from 0 to 5 (cf. Example 7).
# [9] = system: Cryptomeria japonica; test: Foliage treatment of woody plants (Example 10); set-up: key to damage to the plants, scale 0 to 5: 0 indicates no effect; 5 indicates complete kill; settings: CP Cryptomeria japonica
# Description: as §2
# [10] = system: Euphonia supina; test: Foliage treatment (Example 8); set-up: key: 0 indicates no effect; 5 indicates complete kill; settings: Plant No. 36 Euphonia supina
# Protocol: (§3) Aqueous solutions of Phosalacine (Na salt) at different concentrations were applied at a rate of 1500 liters per hectare to naturally occurring plants or plants which were cultured on plates as shown in the following Table at certain stages of growth. […]
# [11] = system: Oxalis corniculata; test: Foliage treatment (Example 8); set-up: key: 0 indicates no effect; 5 indicates complete kill; settings: Plant No. 35 Oxalis corniculata
# Protocol: as §3
# [12] = system: Glycine max; test: Foliage treatment (Example 8); set-up: key: 0 indicates no effect; 5 indicates complete kill; settings: Plant No. 34 Glycine max
# Protocol: as §3
# [13] = system: Miscanthus sinensis; test: Foliage treatment (Example 8); set-up: key: 0 indicates no effect; 5 indicates complete kill; settings: Plant No. 5 Miscanthus sinensis
# Protocol: as §3
# [14] = system: Artemisia princeps; test: Foliage treatment (Example 8); set-up: key: 0 indicates no effect; 5 indicates complete kill; settings: Plant No. 1 Artemisia princeps
# Protocol: as §3
# [15] = system: Brassica oleracea; test: Foliage treatment (Example 8); set-up: key: 0 indicates no effect; 5 indicates complete kill; settings: Plant No. 28 Brassica oleracea
# Protocol: as §3
# [16] = system: Allium fistulosum; test: Foliage treatment (Example 8); set-up: key: 0 indicates no effect; 5 indicates complete kill; settings: Plant No. 27 Allium fistulosum
# Protocol: as §3
# [17] = system: Cucumis sativus; test: Foliage treatment (Example 8); set-up: key: 0 indicates no effect; 5 indicates complete kill; settings: Plant No. 33 Cucumis sativus
# Protocol: as §3
# [18] = system: Eleucine indica var. carocana; test: Foliage treatment (Example 8); set-up: key: 0 indicates no effect; 5 indicates complete kill; settings: Plant No. 24 Eleucine indica var. carocana
# Protocol: as §3
# [19] = system: Arctium lappa; test: Foliage treatment (Example 8); set-up: key: 0 indicates no effect; 5 indicates complete kill; settings: Plant No. 30 Arctium lappa, 14 days
# Protocol: as §3
smiles,measurement,setting,value
"C[C@H](NC(=O)[C@H](C)NC(=O)[C@@H](N)CCP(C)(=O)[O-])C(=O)O.[Na+] [SF, reference compound]","damage to weeds and brush, scale 0 to 5",[1]; 0.05%,2
same,"damage to weeds and brush, scale 0 to 5",[1]; 0.1%,4
same,"damage to weeds and brush, scale 0 to 5",[1]; 0.2%,5
same,"damage to weeds and brush, scale 0 to 5",[2]; 0.05%,2
same,"damage to weeds and brush, scale 0 to 5",[2]; 0.1%,4
same,"damage to weeds and brush, scale 0 to 5",[2]; 0.2%,5
same,"damage to weeds and brush, scale 0 to 5",[3]; 0.05%,2
same,"damage to weeds and brush, scale 0 to 5",[3]; 0.1%,4
same,"damage to weeds and brush, scale 0 to 5",[3]; 0.2%,5
same,"damage to weeds and brush, scale 0 to 5",[4]; 0.05%,2
same,"damage to weeds and brush, scale 0 to 5",[4]; 0.1%,4
same,"damage to weeds and brush, scale 0 to 5",[4]; 0.2%,5
same,"damage to weeds and brush, scale 0 to 5",[5]; 0.05%,2
same,"damage to weeds and brush, scale 0 to 5",[5]; 0.1%,4
same,"damage to weeds and brush, scale 0 to 5",[5]; 0.2%,5
same,"damage to weeds and brush, scale 0 to 5",[6]; 0.05%,2
same,"damage to weeds and brush, scale 0 to 5",[6]; 0.1%,4
same,"damage to weeds and brush, scale 0 to 5",[6]; 0.2%,5
same,"damage to weeds and brush, scale 0 to 5",[7]; 0.05%,2
same,"damage to weeds and brush, scale 0 to 5",[7]; 0.1%,4
same,"damage to weeds and brush, scale 0 to 5",[7]; 0.2%,5
same,"damage to the plants, scale 0 to 5","[8]; 0.125%, 7 days",0
same,"damage to the plants, scale 0 to 5","[8]; 0.125%, 14 days",0
same,"damage to the plants, scale 0 to 5","[8]; 0.25%, 7 days",0
same,"damage to the plants, scale 0 to 5","[8]; 0.25%, 14 days",0
same,"damage to the plants, scale 0 to 5","[8]; 0.5%, 7 days",0
same,"damage to the plants, scale 0 to 5","[8]; 0.5%, 14 days",0
same,"damage to the plants, scale 0 to 5","[9]; 0.125%, 7 days",0
same,"damage to the plants, scale 0 to 5","[9]; 0.125%, 14 days",0
same,"damage to the plants, scale 0 to 5","[9]; 0.25%, 7 days",0
same,"damage to the plants, scale 0 to 5","[9]; 0.25%, 14 days",1
same,"damage to the plants, scale 0 to 5","[9]; 0.5%, 7 days",0
same,"damage to the plants, scale 0 to 5","[9]; 0.5%, 14 days",2
same,"damage to the plants, scale 0 to 5","[10]; 0.1%, 7 days",3
same,"damage to the plants, scale 0 to 5","[10]; 0.1%, 14 days",4
same,"damage to the plants, scale 0 to 5","[10]; 0.2%, 7 days",4
same,"damage to the plants, scale 0 to 5","[10]; 0.2%, 14 days",5
same,"damage to the plants, scale 0 to 5","[11]; 0.1%, 7 days",3
same,"damage to the plants, scale 0 to 5","[11]; 0.1%, 14 days",4
same,"damage to the plants, scale 0 to 5","[11]; 0.2%, 7 days",4
same,"damage to the plants, scale 0 to 5","[11]; 0.2%, 14 days",5
same,"damage to the plants, scale 0 to 5","[12]; 0.1%, 7 days",3
same,"damage to the plants, scale 0 to 5","[12]; 0.1%, 14 days",4
same,"damage to the plants, scale 0 to 5","[12]; 0.2%, 7 days",4
same,"damage to the plants, scale 0 to 5","[12]; 0.2%, 14 days",5
same,"damage to the plants, scale 0 to 5","[13]; 0.1%, 7 days",3
same,"damage to the plants, scale 0 to 5","[13]; 0.1%, 14 days",4
same,"damage to the plants, scale 0 to 5","[13]; 0.2%, 7 days",4
same,"damage to the plants, scale 0 to 5","[13]; 0.2%, 14 days",5
same,"damage to the plants, scale 0 to 5","[14]; 0.1%, 7 days",3
same,"damage to the plants, scale 0 to 5","[14]; 0.1%, 14 days",4
same,"damage to the plants, scale 0 to 5","[14]; 0.2%, 7 days",4
same,"damage to the plants, scale 0 to 5","[14]; 0.2%, 14 days",5
same,"damage to the plants, scale 0 to 5","[15]; 0.1%, 7 days",3
same,"damage to the plants, scale 0 to 5","[15]; 0.1%, 14 days",4
same,"damage to the plants, scale 0 to 5","[15]; 0.2%, 7 days",4
same,"damage to the plants, scale 0 to 5","[15]; 0.2%, 14 days",5
same,"damage to the plants, scale 0 to 5","[16]; 0.1%, 7 days",3
same,"damage to the plants, scale 0 to 5","[16]; 0.1%, 14 days",4
same,"damage to the plants, scale 0 to 5","[16]; 0.2%, 7 days",5
same,"damage to the plants, scale 0 to 5","[16]; 0.2%, 14 days",5
same,"damage to the plants, scale 0 to 5","[17]; 0.1%, 7 days",3
same,"damage to the plants, scale 0 to 5","[17]; 0.1%, 14 days",4
same,"damage to the plants, scale 0 to 5","[17]; 0.2%, 7 days",4
same,"damage to the plants, scale 0 to 5","[17]; 0.2%, 14 days",5
same,"damage to the plants, scale 0 to 5","[18]; 0.1%, 7 days",3
same,"damage to the plants, scale 0 to 5","[18]; 0.1%, 14 days",4
same,"damage to the plants, scale 0 to 5","[18]; 0.2%, 7 days",4
same,"damage to the plants, scale 0 to 5","[18]; 0.2%, 14 days",5
same,"damage to the plants, scale 0 to 5",[19]; 0.1%,4
same,"damage to the plants, scale 0 to 5",[19]; 0.2%,5
